{
  "source": "patent US11154546B2",
  "about": "“Methods and compositions for treatment of mitochondrial toxicity” (Epirium Bio Inc., priority 2011, dated 2021)",
  "key": {"isolated mitochondria": {"system": "isolated mitochondria", "assay": "calcium induced mitochondrial damage (swelling, OD at 535 nm) in isolated heart mitochondria", "type": "biochemical, rat", "conditions": "10^−14-10^−12 M; 33 μM CaCl2", "experimental": "FIG. 6 depicts the protective effect of epicatechin on calcium induced mitochondrial damage (as measured by mitochondrial swelling). Swelling was evaluated by monitoring changes in optical density (OD, light absorbance) as follows: Hearts from male rats were excised and weighed. Left ventricles were homogenized (0.1 g/mL) in solution A (Sucrose 2M, EDTA 0.01M, Hepes 0.5M: pH=7.4), centrifuged 10 min (800×g), 4° C., the supernatant was centrifuged 10 min (8000×g), 4° C. and the pellet was re-suspended in solution B (Sucrose 2M, EDTA 0.01M, Tris 0.5M-H2PO4-50 mM: pH=7.4) and centrifuged 10 min (10000×g), 4° C. […] Pellet was re-suspended in 10 mL of solution C (Sucrose 2M, EDTA 0.01M, Tris 0.5M, H2PO4 50 mM, Succinate 1M: pH=7.4)."}, "[1]": {"system": "mitochondrial permeability transition pores", "conditions": "cited from earlier work"}, "[2]": {"system": "differentiated human skeletal muscle cells", "assay": "mitochondrial respiration (oxygen consumption rate, Seahorse apparatus) in differentiated human skeletal muscle cells", "type": "cell-based", "conditions": "cells treated with 30 nM epicatechin for 48 h", "experimental": "FIG. 1 depicts epicatechin stimulation on-demand mitochondrial respiration in human cells. […] Rates of respiration are reported as oxygen consumption rates (OCR) and were measured using a Seahorse apparatus.\nFIG. 2 depicts blockade of epicatechin's stimulatory effect by an inhibitor of pyruvate transport."}, "[3]": {"system": "mitochondrial oxidative phosphorylation (OXPHOS) related complexes", "assay": "Western blot of OXPHOS complexes in skeletal muscle of prednisolone-treated rats", "type": "in vivo", "conditions": "prednisolone 10 mg/kg/day SC, 10 days, rat quadriceps", "experimental": "FIG. 3 depicts the effects of the administration of 10 consecutive days of prednisolone (10 mg/kg/day, SC) on rat skeletal muscle mitochondrial oxidative phosphorylation (OXPHOS) related complexes levels as assessed by Western blots. Three groups of male rats were analyzed: 1) control group (saline solution, SC and saline solution by gavage BID); 2) prednisolone (10 mg/kg/day, SC and saline solution by gavage BID); and 3) prednisolone (10 mg/kg/day, SC) plus epicatechin (Epi; 1 mg/kg/day by gavage BID). Western blots of isolated skeletal muscle (quadriceps) from each group were probed with a cocktail of monoclonal antibodies to electron transport chain proteins (OXPHOS) (20 KDa subunit of complex I, 26 KDa subunit of complex IV, subunit core 2 of complex III, 30 KDa complex II and ATP synthase 54 Kda complex V). […]\nWestern blots were performed as follows: Approximately 50 mg of the heart and quadriceps femoris muscles were homogenized with a polytron in 500 μl lysis buffer (1% triton X-100, 20 mM Tris, 140 mM NaCl, 2 mM EDTA, and 0.1% SDS) with protease and phosphatase inhibitor cocktails (P2714 and P2850, Sigma-Aldrich, St. Louis, Mo.) supplemented with 0.15 mM PMSF, 5 mM Na3VO4 and 3 mM NaF. […] The total protein content was measured in the supernatant using the Bradford method. […] The band intensities were digitally quantified using ImageJ software."}, "[4]": {"assay": "fasting glucose levels in prednisolone-treated rats", "type": "in vivo, rat", "conditions": "prednisolone 10 mg/kg/day SC, 10 days", "quoted_text": "Three groups of male rats were analyzed: 1) control group (saline solution, SC and saline solution by gavage BID); 2) prednisolone (10 mg/kg/day, SC and saline solution by gavage BID) and; 3) prednisolone (10 mg/kg/day, SC) plus epicatechin (Epi; 1 mg/kg/day by gavage BID). Blood samples were obtained from animals on each group after 12 hours fasting, Glucose levels were determined spectrophotometrically with an autokit glucose (Wako) kit."}, "[5]": {"assay": "oral glucose tolerance test in prednisolone-treated rats", "type": "in vivo, rat", "conditions": "prednisolone 10 mg/kg/day SC, 10 days; oral glucose 1.25 g/Kg, 0-4 hours", "quoted_text": "Blood samples were obtained from animals on each group from 0-4 hours after an oral glucose charge (1.25 g/Kg). Glucose levels were determined spectrophotometrically with an autokit glucose (Wako) kit."}},
  "data": [
    {"smiles": "O=C(NCCO[N+](=O)[O-])c1cccnc1", "note": "[Nicorandil, N-[2-(Nitroxy)ethyl]-3-pyridinecarboxamide]", "values": [
      {"measurement": "calcium induced mitochondrial swelling", "setting": "isolated mitochondria", "result": "blocks in a dose dependent manner"},
      {"measurement": "mitochondrial pore formation in response to ischemia", "setting": "[1]", "result": "prevent mitochondrial pore formation"}
    ]},
    {"smiles": "N#CC(=Cc1ccccc1)C(=O)O", "note": "[a-cyannocinnamate]", "values": [
      {"measurement": "blockade of epicatechin-stimulated maximal rates of respiration", "setting": "[2]", "result": "blocked"}
    ]},
    {"smiles": "OCC1OC(O)CC(O)C1O", "note": "(stereo not shown) [deoxyglucose]", "values": [
      {"measurement": "blockade of epicatechin-stimulated maximal rates of respiration", "setting": "[2]", "result": "not by deoxyglucose"}
    ]},
    {"smiles": "C[C@]12C=CC(=O)C=C1CC[C@@H]1[C@@H]2[C@@H](O)C[C@@]2(C)[C@H]1CC[C@]2(O)C(=O)CO", "note": "[prednisolone]", "values": [
      {"measurement": "skeletal muscle mitochondrial complex (I-V) levels", "setting": "[3]", "result": "reduced"},
      {"measurement": "glucose levels after 12 hours fasting", "setting": "[4]", "result": "significant hyperglycemia"},
      {"measurement": "oral glucose tolerance", "setting": "[5]", "result": "Abnormal glucose tolerance"}
    ]}
  ]
}
